The record followed here is patent publication US9717243B2, “Piperidinecarboxylic acid derivatives as fungicides” (priority 2013, dated 2017).

Each structure is given as a SMILES string. Where two headings read alike, the source gives them in different places.

Data set [1] has as its system Plasmopara viticola. The data set is described as follows: Plasmopara test (grapevines)/preventive. The settings on record: preventive, evaluated 6 days after inoculation, 0% = untreated control, 100% = no disease.
Experimental: Plasmopara Test (Grapevines)/Preventive • Solvent: 24.5 parts by weight of acetone • 24.5 parts by weight of dimethylacetamide • Emulsifier: 1 part by weight of alkylaryl polyglycol ether
After the spray coating has dried on, the plants are inoculated with an aqueous spore suspension of Plasmopara viticola and then remain for 1 day in an incubation cabinet at approximately 20° C. and a relative atmospheric humidity of 100%. The plant is subsequently placed for 4 days in a greenhouse at approximately 21° C. and a relative atmospheric humidity of approximately 90%. The plants are then misted and placed for 1 day in an incubation cabinet.
The test is evaluated 6 days after the inoculation.
Data set [2] in a line: LogP by HPLC on reversed phase columns (EEC directive 79/831 Annex V.A8). The class given is physicochemical. The settings on record: for chromatographic logP: read-out: Log P[a]. As to the method: Calibration was done with straight-chain alkan2-ones (with 3 to 16 carbon atoms) with known LogP values (measurement of LogP values using retention times with linear interpolation between successive alkanones). Lambda-max-values were determined using UV-spectra from 200 nm to 400 nm and the peak values of the chromatographic signals.

Data set [3] deals with Phytophthora infestans. The class given is in vivo. The settings on record: 100 ppm of active ingredient; preventive, tomatoes; evaluated 3 days after inoculation; 0% = untreated control, 100% = no disease.
The mark [4] stands for this setting: Table 1, compounds of formula (I), LC-UV, acidic range, 0.1% formic acid in water and acetonitrile as eluent.

As for `C#CCOc1ccc(F)c(F)c1C1CC(c2csc(C3(C(=O)OC)CCN(C(=O)Cn4nc(C(F)F)cc4C)CC3)n2)=NO1` (stereo not shown) [Example I-66], the Efficacy % in data set [1] (1 ppm of active ingredient) was 76%. Besides, the “Log P[a]” value in data set [2] was 3.33.

Take `COC(=O)C1(c2nc(C3=NOC(c4ccccc4OS(C)(=O)=O)C3)cs2)CCN(C(=O)Nc2cc(C(F)F)ccc2C(F)F)CC1` (stereo not shown) [Example I-9]: the Efficacy % was found to be 100% in data set [1] (100 ppm of active ingredient) and 91% in data set [3]. Also, the “Log P[a]” value in data set [2] is given as 3.42.

Turning to `COC(=O)C1(c2nc(C3=NOC(c4ccccc4OS(C)(=O)=O)C3)cs2)CCN(C(=O)Nc2cc(C)ccc2C)CC1` (stereo not shown) [Example I-11], the Efficacy % in data set [1] (100 ppm of active ingredient) and in data set [3] was 100% throughout. The “Log P[a]” value in data set [2] is listed as 3.29.

The compound `C#CCOc1ccc(F)c(F)c1C1CC(c2csc(C3(C(=O)OC)CCN(C(=O)Cn4nc(C(F)F)cc4C(F)F)CC3)n2)=NO1` (stereo not shown) [Example I-3] came in with an Efficacy % in data set [1] (1 ppm of active ingredient) of 93%. In addition, the “Log P[a]” value in data set [2] worked out at 3.61.

Regarding `COC(=O)C1(c2nc(C3=NOC(c4ccccc4OS(C)(=O)=O)C3)cs2)CCN(C(=O)Cn2nc(C(F)F)cc2C(F)F)CC1` (stereo not shown) [Example I-7, methyl 1-{[3,5-bis(difluoromethyl)-1H-pyrazol-1-yl]acetyl}-4-[4-(5-{2-[(methylsulfonyl)oxy]phenyl}-4,5-dihydro-1,2-oxazol-3-yl)-1,3-thiazol-2-yl]piperidine-4-carboxylate], the Efficacy % was found to be 100% in data set [1] (100 ppm of active ingredient) and 95% in data set [3]. In addition, the chromatographic logP in data set [2] (setting [4]) was found to be 3.27.

With `COC(=O)C1(c2nc(C3=NOC(c4ccccc4OS(C)(=O)=O)C3)cs2)CCN(C(=O)Nc2cn(C(F)F)nc2C)CC1` (stereo not shown) [Example I-10], the Efficacy % in data set [1] (100 ppm of active ingredient) is 96%; in data set [3] it was 94%. Besides, in data set [2], the “Log P[a]” value was found to be 2.64.

In the case of `CCOC(=O)C1(c2nc(C3=NOC(c4ccccc4-c4ccccc4)C3)cs2)CCN(C(=O)Cn2nc(C(F)F)cc2C(F)F)CC1` (stereo not shown) [Example I-23], the “Log P[a]” value in data set [2] (setting [4]) turned out to be 4.64.

`COC(=O)C1(c2nc(C3=NOC(c4c(F)cccc4F)C3)cs2)CCN(C(=O)Cn2nc(C(F)(F)F)cc2C)CC1` (stereo not shown) [Example I-69]: the “Log P[a]” value in data set [2] is reported as 3.55.

`COC(=O)C1(C(N)=S)CCN(C(=O)Nc2cc(C(F)F)nn2C)CC1` [II-12, methyl 4-carbamothioyl-1-{[3-(difluoromethyl)-1-methyl-1H-pyrazol-5-yl]carbamoyl}piperidine-4-carboxylate]: in data set [2] (Table 4, compounds of formula (II), LC-UV, acidic range, 0.1% formic acid in water and acetonitrile as eluent), the chromatographic logP was 1.33.

`C=CCOC(=O)C1(C(N)=S)CCN(C(=O)Cn2nc(C(F)F)cc2C(F)F)CC1` [II-3]: the “Log P[a]” value in data set [2] is recorded as 2.42.

For the compound `CCC(C)NC(=O)C1(C#N)CCN(C(=O)Nc2cccc(C#N)c2)CC1` (stereo not shown) [IV-36], in data set [2], the “Log P[a]” value amounted to 1.28.

Take `COC(=O)C1(c2nc(C3=NOC(c4ccccc4)C3)cs2)CCN(C(=O)Cn2nc(C(F)F)cc2C)CC1` (stereo not shown) [Example I-63]: the “Log P[a]” value in data set [2] is given as 3.17.

For the compound `COC(=O)C1(C#N)CCN(C(=O)Nc2cn(C)nc2C(F)F)CC1` [IV-34], the “Log P[a]” value in data set [2] is on record as 1.40.

With `COC(=O)C1(C#N)CCN(C(=O)Cn2nc(C(F)(F)F)cc2C)CC1` [IV-7], the “Log P[a]” value in data set [2] was determined as 2.32.

On to `CC(C)(C)OC(=O)C1(C#N)CCN(C(=O)Nc2ccc(F)cc2)CC1` [IV-22], for which the “Log P[a]” value in data set [2] is 2.96.

Turning to `CC(C)OC(=O)C1(c2nc(C3=NOC(c4ccccc4-c4ccccc4)C3)cs2)CCN(C(=O)Cn2nc(C(F)F)cc2C(F)F)CC1` (stereo not shown) [Example I-30], in data set [2] (setting [4]), the “Log P[a]” value is recorded as 4.92.

With `NC(=S)C1(C(=O)OCc2ccccc2)CCN(C(=O)Cn2nc(C(F)F)cc2C(F)F)CC1` [II-4], the “Log P[a]” value in data set [2] amounted to 2.90.

In the case of `O=C(Cn1nc(C(F)F)cc1C(F)F)N1CCC(C(=O)OCc2ccccc2)(c2nc(C3=NOC(c4ccccc4-c4ccccc4)C3)cs2)CC1` (stereo not shown) [Example I-36], the “Log P[a]” value in data set [2] (setting [4]) came to 5.08.

On to `CC(C)OC(=O)C1(c2nc(C3=NOC(c4c(Cl)cccc4OS(C)(=O)=O)C3)cs2)CCN(C(=O)Cn2nc(C(F)F)cc2C(F)F)CC1` (stereo not shown) [Example I-29], for which the “Log P[a]” value in data set [2] turned out to be 3.96.

On to `NC(=S)C1(C(=O)OC2CCOC2)CCN(C(=O)Cn2nc(C(F)F)cc2C(F)F)CC1` (stereo not shown) [II-1], for which the “Log P[a]” value in data set [2] came to 2.02.

Regarding `COC(=O)C1(c2nc(C3=NOC(c4c(Cl)cccc4OS(C)(=O)=O)C3)cs2)CCN(C(=O)Nc2cn(C)nc2C(F)F)CC1` (stereo not shown) [Example I-14], in data set [2], the “Log P[a]” value was 2.73.

For `COC(=O)C1(c2nc(C3=NOC(c4ccccc4OS(C)(=O)=O)C3)cs2)CCN(C(=O)Nc2cc(C(F)F)nn2C)CC1` (stereo not shown) [Example I-8], in data set [2], the “Log P[a]” value worked out at 2.64.

With `C#CCOc1ccccc1C1CC(c2csc(C3(C(=O)OCC)CCN(C(=O)Cn4nc(C(F)F)cc4C(F)F)CC3)n2)=NO1` (stereo not shown) [Example I-27], in data set [2], the “Log P[a]” value was 3.87.

`COC(=O)C1(c2nc(C3=NOC(c4c(Cl)cccc4OS(C)(=O)=O)C3)cs2)CCN(C(=O)Cn2nc(C(F)F)cc2C)CC1` (stereo not shown) [Example I-60]: the “Log P[a]” value in data set [2] worked out at 3.19.

`CC(C)OC(=O)C1(c2nc(C3=NOC(c4c(F)cccc4F)C3)cs2)CCN(C(=O)Cn2nc(C(F)F)cc2C(F)F)CC1` (stereo not shown) [Example I-31]: the “Log P[a]” value in data set [2] came to 3.99.

As to `COC(=O)C1(c2nc(C3=NOC(c4c(F)cccc4F)C3)cs2)CCN(C(=O)Cn2nc(C(F)F)cc2C(F)F)CC1` (stereo not shown) [Example I-1], the “Log P[a]” value in data set [2] is 3.44.

Regarding `CSCCOC(=O)C1(c2nc(C3=NOC(c4ccccc4)C3)cs2)CCN(C(=O)Cn2nc(C(F)F)cc2C(F)F)CC1` (stereo not shown) [Example I-50], in data set [2], the “Log P[a]” value worked out at 3.89.

Take `CC(C)(C)OC(=O)C1(C#N)CCN(C(=O)Cc2ccc(Cl)cc2)CC1` [IV-24]: the “Log P[a]” value in data set [2] is listed as 3.37.

With `COCCOC(=O)C1(C(N)=S)CCN(C(=O)Cn2nc(C(F)F)cc2C(F)F)CC1` [II-18], in data set [2], the “Log P[a]” value is given as 2.10.

As to `CS(=O)(=O)Oc1cccc(Cl)c1C1CC(c2csc(C3(C(=O)OCc4ccccc4)CCN(C(=O)Cn4nc(C(F)F)cc4C(F)F)CC3)n2)=NO1` (stereo not shown) [Example I-35], the “Log P[a]” value in data set [2] was 4.19.

As for `COC(=O)C1(c2nc(C3=NOC(c4ccccc4OS(C)(=O)=O)C3)cs2)CCN(C(=O)Cn2nc(C(F)(F)F)cc2C)CC1` (stereo not shown) [Example I-71], in data set [2], the “Log P[a]” value is on record as 3.33.

For the compound `N#CC1(C(=O)O)CCN(C(=S)Nc2ccc(OC(F)(F)F)cc2)CC1` [IV-33], in data set [2], the “Log P[a]” value worked out at 2.33.

In the case of `CC(C)(C)OC(=O)C1(C#N)CCN(C(=O)Cc2ccccc2)CC1` [IV-23], the “Log P[a]” value in data set [2] is listed as 2.96.
